Data on one molecule can be found in patent US20220096515A1, “Methods and Formulations for Preventing Neurological or Psychiatric Disorders” (Huntington Medical Research Institutes, priority 2020, published 2022).

The test system of assay [1] is Gabrb3^ECKO mice. Nature of the assay: Nest building (nestlets and shredded paper). Format: in vivo, mouse. As to the method: (§1) Behavioral Experiments: Mice were housed in our animal facility with a 12-hour light cycle with ad libitum access to food and water. Offspring stayed with their mothers until weaning at PND 21 after which males and females were separated. Before all behavioral testing, mice were acclimated to the testing room for 1 hour. Behavioral assays were performed according to established protocols referenced here: self-grooming, light-dark box, tail suspension test, Y-maze, open field locomotion activity, three chamber social interaction test and nest building with nestlets and with shredded paper. Both males and females were used for all behavioral assays. Experimenters scoring behaviors were blinded to the genotypes and treatment. Sample sizes for each assay are noted in figure legends.
Therefore, behavioral tests were performed to screen for stress, anxiety, locomotion, cognition, and sociability in saline-treated Gabrb3^fl/fl mice, saline-treated Gabrb3^ECKO mice and NAD^+-treated Gabrb3^ECKO mice. Mice from saline and NAD^+-treated groups were housed individually in cages containing wood chip bedding and two nestlets (pressed cotton) (FIGS. 16A-16D) or more naturalistic material like shredded paper strips (FIGS. 16E-16H). […] This rescue of home cage social behavior was a robust indication of well-being in NAD^+-treated Gabrb3^ECKO mice. […]

Assay [2] concerns GABAergic neurons isolated at E18 from Gabrb3^ECKO. Nature of the assay: In vitro neuronal migration assay after in vivo NAD+ treatment paradigm. It is filed as cell-based, mouse. The following applies: neurons isolated at E18 after in vivo treatment E12-E17. The method, then:
Isolation and primary culture of neuronal cells: Primary culture of embryonic GABAergic neurons from CD1 telencephalon or after the saline or NAD+ treatment paradigms were performed using established methods. Briefly, embryonic brains were extracted under a stereo microscope and placed into cold PBS. After removal of the pial membrane, the telencephalon was dissected from each embryonic brain. The telencephalon was minced into 1-2 mm slices in cold PBS. Minced telencephalon was treated with 0.1× trypsin/EDTA at 37° C. for 5 min. Trypsin treatment was stopped by adding FBS-DMEM media and DNase I consecutively. […]
Neuronal migration assay: In preparation for cell migration assays, one well square culture inserts (ibidi GmbH) were placed in the center of a poly-Ornithine/Laminin coated 35 mm dish, to make a small rectangular patch that is labeled outside the dish. […] Neuronal migration was assessed by measuring the distance between the final positions of cells from the border of the rectangular patch was outlined on the first day, using ImageJ software.
To test if the prenatal NAD^+ treatment was able to influence GABAergic neuronal migration, an in vitro neuronal migration assay was performed (FIG. 6M), after the in vivo NAD^+ treatment paradigm (E12-E17). […] Images of GFP^+ cells that had entered the dorsal telencephalon at E18 were collected and analyzed. […]

Assay [3] has as its system Gabrb3^ECKO mice. Nature of the assay: Y maze spontaneous alternation test. It is filed as in vivo, mouse. The following applies: vs saline-treated Gabrb3^ECKO mice. As to the method:
as §1
Anxiety was next assessed with the classic light-dark transition test which triggers a struggle between the desires to explore a novel environment versus natural aversion of a brightly illuminated open space. […] The Y maze spontaneous alternation test was used to evaluate for spatial learning and memory in the three groups of mice. After introduction to the center of the maze, the mice were given free access to all three arms. […] The total number of arm entries and the sequence of entries are recorded in order to calculate the percentage of alternation. […]

Molecules are shown by their SMILES.

As to `NC(=O)c1ccc[n+]([C@@H]2O[C@H](COP(=O)([O-])OP(=O)(O)OC[C@H]3O[C@@H](n4cnc5c(N)ncnc54)[C@H](O)[C@@H]3O)[C@@H](O)[C@H]2O)c1` [NAD^+], the nest building ability result with Gabrb3^ECKO mice [1] is on record as “significant improvement in their nest building ability”. In assay [2], the “migration of β-Tubulin^+ neurons (cell number and distance)” value is “migrated robustly”. Further, the percentage alternations result with Gabrb3^ECKO mice [3] is given as “significant increase in percentage alternations”.
